Assay results taken from ChEMBL document CHEMBL1201862, “PubChem BioAssay data set” (2004).
One block for each compound: values may come before it. Calls of active or inactive are those of the source. Cut-off read from the data, not from the text of the source, for most assays here: actives have a measured IC50 and inactives only a lower limit.

Assays:
[1] = target: T1, Tyrosine-protein phosphatase non-receptor type 22 (Homo sapiens, UniProt Q9Y2R2); assay: SAR LYP1 Fluorescent Assay using pCAP substrate for In Vitro dose response studies - Set 2. [Related pubchem assays (depositor defined):AID1779, AID1784, AID2135, AID449727]; format: functional
T1 sequence (Q9Y2R2 whole entry): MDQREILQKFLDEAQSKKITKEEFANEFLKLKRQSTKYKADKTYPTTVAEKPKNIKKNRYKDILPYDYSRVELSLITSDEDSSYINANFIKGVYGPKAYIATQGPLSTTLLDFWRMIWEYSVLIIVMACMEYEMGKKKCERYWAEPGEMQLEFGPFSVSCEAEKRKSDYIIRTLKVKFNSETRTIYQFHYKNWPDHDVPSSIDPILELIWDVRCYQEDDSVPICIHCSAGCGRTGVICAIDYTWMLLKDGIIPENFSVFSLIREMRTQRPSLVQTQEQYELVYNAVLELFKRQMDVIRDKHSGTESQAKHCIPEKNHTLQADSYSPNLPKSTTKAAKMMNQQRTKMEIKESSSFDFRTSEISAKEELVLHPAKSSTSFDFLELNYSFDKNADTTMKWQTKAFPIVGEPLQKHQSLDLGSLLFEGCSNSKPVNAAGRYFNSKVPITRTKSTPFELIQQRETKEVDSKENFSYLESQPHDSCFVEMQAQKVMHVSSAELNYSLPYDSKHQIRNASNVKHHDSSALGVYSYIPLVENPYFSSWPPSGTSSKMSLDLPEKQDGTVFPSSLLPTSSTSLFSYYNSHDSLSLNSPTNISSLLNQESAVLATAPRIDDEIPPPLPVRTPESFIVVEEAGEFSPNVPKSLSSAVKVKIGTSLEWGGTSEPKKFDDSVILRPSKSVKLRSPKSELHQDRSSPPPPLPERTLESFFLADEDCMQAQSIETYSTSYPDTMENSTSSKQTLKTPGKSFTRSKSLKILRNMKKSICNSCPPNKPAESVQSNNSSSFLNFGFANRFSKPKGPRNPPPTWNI

[2] = target: Tyrosine-protein phosphatase non-receptor type 12 (Homo sapiens, UniProt Q05209); assay: SAR Selectivity Analysis of small molecule inhibitors of PEST using pCAP in a fluorescence assay. [Related pubchem assays (depositor defined):AID1779, AID1784, AID2135]; format: functional
Chain of Tyrosine-protein phosphatase non-receptor type 12 (Q05209 whole entry): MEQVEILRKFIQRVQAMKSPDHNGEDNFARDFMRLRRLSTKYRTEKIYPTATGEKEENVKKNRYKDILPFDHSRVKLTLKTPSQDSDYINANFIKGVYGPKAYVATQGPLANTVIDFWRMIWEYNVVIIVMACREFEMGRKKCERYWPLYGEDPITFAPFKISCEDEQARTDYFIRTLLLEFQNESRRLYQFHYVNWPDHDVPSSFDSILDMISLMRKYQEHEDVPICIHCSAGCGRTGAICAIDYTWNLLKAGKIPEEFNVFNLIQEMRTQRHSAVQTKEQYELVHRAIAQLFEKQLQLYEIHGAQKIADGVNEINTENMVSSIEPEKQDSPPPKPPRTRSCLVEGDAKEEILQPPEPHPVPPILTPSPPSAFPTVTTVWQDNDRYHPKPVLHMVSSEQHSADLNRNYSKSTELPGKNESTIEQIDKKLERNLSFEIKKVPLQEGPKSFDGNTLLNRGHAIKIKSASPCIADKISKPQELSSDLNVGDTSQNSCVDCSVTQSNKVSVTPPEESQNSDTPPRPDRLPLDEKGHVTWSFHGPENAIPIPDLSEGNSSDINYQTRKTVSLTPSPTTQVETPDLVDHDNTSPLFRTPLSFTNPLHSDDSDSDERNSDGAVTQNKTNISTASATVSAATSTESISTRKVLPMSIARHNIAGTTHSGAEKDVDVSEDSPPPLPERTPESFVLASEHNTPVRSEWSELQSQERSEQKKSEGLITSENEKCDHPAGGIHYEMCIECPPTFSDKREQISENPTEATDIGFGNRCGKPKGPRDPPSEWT

[3] = target: T1, Tyrosine-protein phosphatase non-receptor type 22; assay: SAR LYP1 Fluorescent Assay using OMFP substrate for In Vitro dose response studies - Set 3. [Related pubchem assays (depositor defined):AID1779, AID1784, AID2140, AID2686]; format: functional
[4] = target: T2, Tyrosine-protein phosphatase non-receptor type 7 (Homo sapiens, UniProt P35236); assay: inhibition of hematopoietic tyrosine phosphatase HePTP – biochemical, set 2, SAR follow-up (AID 449736); format: functional
T2 sequence (P35236 whole entry): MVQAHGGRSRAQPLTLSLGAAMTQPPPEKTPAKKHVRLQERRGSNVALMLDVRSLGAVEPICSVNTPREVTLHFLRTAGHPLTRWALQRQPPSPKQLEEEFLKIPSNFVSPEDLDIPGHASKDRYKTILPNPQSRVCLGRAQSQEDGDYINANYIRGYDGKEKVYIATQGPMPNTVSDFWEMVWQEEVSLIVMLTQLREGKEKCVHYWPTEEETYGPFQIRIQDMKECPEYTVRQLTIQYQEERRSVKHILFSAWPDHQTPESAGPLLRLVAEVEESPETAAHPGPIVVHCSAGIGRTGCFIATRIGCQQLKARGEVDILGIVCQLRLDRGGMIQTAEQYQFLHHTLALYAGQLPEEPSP

[5] = target: T1, Tyrosine-protein phosphatase non-receptor type 22; assay: inhibition of lymphoid tyrosine phosphatase LYP – biochemical, pCAP fluorogenic substrate, fluorescence, set 3, SAR follow-up (AID 449727); format: functional
[6] = target: T1, Tyrosine-protein phosphatase non-receptor type 22; assay: SAR LYP1 Fluorescent Assay using OMFP substrate for In Vitro dose response studies - Set 2. [Related pubchem assays (depositor defined):AID1779, AID1784, AID2140, AID449726, AID488869]; format: functional
[7] = target: T2, Tyrosine-protein phosphatase non-receptor type 7; format: functional
[8] = Trypanosoma cruzi growth suppression in host cells – NIH3T3 host cells, beta-gal luminescence, confirmation (AID 2044); format: functional, cell-based;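 note: intracellular parasites grown in NIH/3T3 mouse fibroblasts as host cells; luminescent beta-galactosidase reporter signal from transgenic T. cruzi replicating inside host cells; inhibitors lower the luminescence signal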
[9] = NIH3T3 cell viability loss – ATP luminescence, mouse fibroblasts, counter-screen, dose response (AID 2010); format: functional, cell-based;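 note: cells exposed to compound for about 90 hours before reading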
[10] = target: T1, Tyrosine-protein phosphatase non-receptor type 22; format: functional
[11] = target: T1, Tyrosine-protein phosphatase non-receptor type 22; format: functional; remark: listed apart in the source
[12] = target: Intestinal-type alkaline phosphatase (Homo sapiens, UniProt P09923); assay: activation of human intestinal alkaline phosphatase – biochemical, dose response (AID 488873); format: functional
Chain of Intestinal-type alkaline phosphatase (Homo sapiens, UniProt P09923) (P09923 whole entry): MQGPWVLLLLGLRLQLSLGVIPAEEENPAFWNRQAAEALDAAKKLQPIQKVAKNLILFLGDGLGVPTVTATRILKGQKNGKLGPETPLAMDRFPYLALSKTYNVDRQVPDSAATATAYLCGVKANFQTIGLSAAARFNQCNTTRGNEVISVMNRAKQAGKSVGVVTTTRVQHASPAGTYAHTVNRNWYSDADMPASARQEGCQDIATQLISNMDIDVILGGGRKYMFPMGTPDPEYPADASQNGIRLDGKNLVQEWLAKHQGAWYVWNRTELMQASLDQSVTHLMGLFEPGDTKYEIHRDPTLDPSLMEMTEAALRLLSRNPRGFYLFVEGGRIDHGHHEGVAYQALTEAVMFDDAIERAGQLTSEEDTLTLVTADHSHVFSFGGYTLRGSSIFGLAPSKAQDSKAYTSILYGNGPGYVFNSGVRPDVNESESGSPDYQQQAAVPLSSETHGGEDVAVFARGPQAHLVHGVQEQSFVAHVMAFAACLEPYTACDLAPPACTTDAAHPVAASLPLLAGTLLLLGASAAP

[13] = target: Intestinal-type alkaline phosphatase (Mus musculus, UniProt P24822); assay: mouse intestinal alkaline phosphatase activators, dose response, biochemical, luminescence, uHTS hits (AID 488783); format: functional
Chain of Intestinal-type alkaline phosphatase (Mus musculus, UniProt P24822) (P24822 whole entry): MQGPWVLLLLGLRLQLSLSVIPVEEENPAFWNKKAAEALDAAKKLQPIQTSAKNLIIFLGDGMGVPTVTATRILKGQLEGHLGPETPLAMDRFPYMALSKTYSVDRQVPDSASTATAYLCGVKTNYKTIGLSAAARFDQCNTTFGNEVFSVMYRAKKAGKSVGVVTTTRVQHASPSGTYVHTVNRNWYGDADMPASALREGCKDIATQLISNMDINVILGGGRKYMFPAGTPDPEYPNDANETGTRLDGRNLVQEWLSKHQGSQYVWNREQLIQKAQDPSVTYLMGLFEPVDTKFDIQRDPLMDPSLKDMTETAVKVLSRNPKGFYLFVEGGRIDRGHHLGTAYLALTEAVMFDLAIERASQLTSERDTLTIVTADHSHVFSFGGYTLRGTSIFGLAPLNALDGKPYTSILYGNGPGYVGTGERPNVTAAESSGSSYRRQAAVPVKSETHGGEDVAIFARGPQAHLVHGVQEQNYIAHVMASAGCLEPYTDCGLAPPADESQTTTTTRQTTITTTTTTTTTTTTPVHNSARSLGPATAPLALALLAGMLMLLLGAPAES

[14] = target: T3, Alkaline phosphatase, tissue-nonspecific isozyme (Homo sapiens, UniProt P05186); assay: activation of tissue-nonspecific alkaline phosphatase – biochemical, TNAP isozyme, mouse IAP uHTS hits, selectivity assay for mouse IAP activator project, dose response (AID 488880); format: functional
T3 sequence (P05186 whole entry): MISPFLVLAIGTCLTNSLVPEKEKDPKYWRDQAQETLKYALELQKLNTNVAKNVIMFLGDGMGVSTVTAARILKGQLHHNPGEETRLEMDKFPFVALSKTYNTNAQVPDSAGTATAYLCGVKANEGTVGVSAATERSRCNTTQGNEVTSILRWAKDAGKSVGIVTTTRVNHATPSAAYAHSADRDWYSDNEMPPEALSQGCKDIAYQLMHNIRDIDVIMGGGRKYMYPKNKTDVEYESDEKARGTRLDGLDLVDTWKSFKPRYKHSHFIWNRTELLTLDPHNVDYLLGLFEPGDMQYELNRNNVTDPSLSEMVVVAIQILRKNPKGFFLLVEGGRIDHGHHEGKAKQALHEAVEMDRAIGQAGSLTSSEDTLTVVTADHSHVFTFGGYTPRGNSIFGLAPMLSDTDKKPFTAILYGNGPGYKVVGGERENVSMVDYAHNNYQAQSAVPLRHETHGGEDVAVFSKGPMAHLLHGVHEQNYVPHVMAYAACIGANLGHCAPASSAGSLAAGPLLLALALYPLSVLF

[15] = target: Genome polyprotein (Hepatitis C virus, UniProt Q2Q167); assay: disruption of hepatitis C core self-association – biochemical, TR-FRET, dose response (AID 2159); design: species or system Hepacivirus hominis;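 note: blocks dimerization of HCV core protein measured by TR-FRET between tagged core106 pairs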
Chain of Genome polyprotein (Q2Q167 whole entry): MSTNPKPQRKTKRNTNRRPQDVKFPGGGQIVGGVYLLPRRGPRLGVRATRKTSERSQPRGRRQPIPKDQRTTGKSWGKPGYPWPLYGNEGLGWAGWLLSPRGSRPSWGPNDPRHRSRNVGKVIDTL

[16] = target: T4, SUMO-activating enzyme (Homo sapiens, UniProt Q9UBT2); assay: blockers of UBC9-mediated SUMO conjugation – biochemical, AlphaScreen, SUMOylation inhibitor project, confirmation (AID 2018); format: functional
T4 sequence (Q9UBE0 whole entry): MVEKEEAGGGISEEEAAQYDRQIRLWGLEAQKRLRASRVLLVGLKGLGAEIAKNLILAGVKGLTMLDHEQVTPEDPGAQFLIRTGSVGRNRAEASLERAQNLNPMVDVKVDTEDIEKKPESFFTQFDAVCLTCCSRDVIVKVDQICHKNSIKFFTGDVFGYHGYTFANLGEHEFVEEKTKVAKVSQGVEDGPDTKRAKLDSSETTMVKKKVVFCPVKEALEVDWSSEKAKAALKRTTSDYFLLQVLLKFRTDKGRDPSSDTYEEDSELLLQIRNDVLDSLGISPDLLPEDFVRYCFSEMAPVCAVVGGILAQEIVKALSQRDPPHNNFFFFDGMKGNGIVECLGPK
T4 sequence (Q9UBT2 whole entry): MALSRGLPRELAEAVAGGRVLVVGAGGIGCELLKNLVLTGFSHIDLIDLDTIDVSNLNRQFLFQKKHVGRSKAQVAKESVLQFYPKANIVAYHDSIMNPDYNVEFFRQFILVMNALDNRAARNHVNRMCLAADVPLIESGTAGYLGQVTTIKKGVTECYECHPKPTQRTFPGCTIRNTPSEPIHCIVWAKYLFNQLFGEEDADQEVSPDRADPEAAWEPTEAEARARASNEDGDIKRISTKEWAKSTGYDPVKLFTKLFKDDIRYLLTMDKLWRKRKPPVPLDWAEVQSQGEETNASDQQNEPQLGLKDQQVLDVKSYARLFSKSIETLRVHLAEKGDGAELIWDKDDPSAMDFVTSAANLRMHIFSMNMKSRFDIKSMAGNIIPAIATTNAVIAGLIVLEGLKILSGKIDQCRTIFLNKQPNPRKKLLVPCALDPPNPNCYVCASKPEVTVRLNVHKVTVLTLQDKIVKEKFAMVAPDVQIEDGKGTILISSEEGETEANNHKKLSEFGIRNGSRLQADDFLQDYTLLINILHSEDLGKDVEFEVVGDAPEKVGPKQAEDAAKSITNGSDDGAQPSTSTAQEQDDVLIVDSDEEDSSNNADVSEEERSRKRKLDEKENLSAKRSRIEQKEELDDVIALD

[17] = target: T4, SUMO-activating enzyme; assay: blockers of SAE1/SAE2–UBC9 SUMO transfer – biochemical, HTRF, uHTS, primary screen (AID 2006); format: protein-complex assay
[18] = target: T5, Carboxy-terminal domain RNA polymerase II polypeptide A small phosphatase 1 (Homo sapiens, UniProt Q9GZU7); assay: CTDSP1 inhibitors, concentration-response, biochemical, absorbance readout, ultra-high-throughput screen actives (AID 540297); format: functional
T5 sequence (Q9GZU7 whole entry): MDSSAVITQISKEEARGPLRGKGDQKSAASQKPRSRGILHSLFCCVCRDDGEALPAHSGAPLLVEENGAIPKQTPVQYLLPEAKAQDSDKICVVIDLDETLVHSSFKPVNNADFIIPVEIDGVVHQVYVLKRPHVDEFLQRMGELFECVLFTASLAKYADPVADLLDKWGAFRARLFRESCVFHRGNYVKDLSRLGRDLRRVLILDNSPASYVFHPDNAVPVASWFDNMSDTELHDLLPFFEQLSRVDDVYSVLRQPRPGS

[19] = target: DNA (cytosine-5)-methyltransferase 1 (Homo sapiens, UniProt P26358); assay: inhibition of DNA methylation by DNMT1 – biochemical, fluorescent molecular beacon, confirmation (AID 602386); format: functional
Chain of DNA (cytosine-5)-methyltransferase 1 (P26358 whole entry): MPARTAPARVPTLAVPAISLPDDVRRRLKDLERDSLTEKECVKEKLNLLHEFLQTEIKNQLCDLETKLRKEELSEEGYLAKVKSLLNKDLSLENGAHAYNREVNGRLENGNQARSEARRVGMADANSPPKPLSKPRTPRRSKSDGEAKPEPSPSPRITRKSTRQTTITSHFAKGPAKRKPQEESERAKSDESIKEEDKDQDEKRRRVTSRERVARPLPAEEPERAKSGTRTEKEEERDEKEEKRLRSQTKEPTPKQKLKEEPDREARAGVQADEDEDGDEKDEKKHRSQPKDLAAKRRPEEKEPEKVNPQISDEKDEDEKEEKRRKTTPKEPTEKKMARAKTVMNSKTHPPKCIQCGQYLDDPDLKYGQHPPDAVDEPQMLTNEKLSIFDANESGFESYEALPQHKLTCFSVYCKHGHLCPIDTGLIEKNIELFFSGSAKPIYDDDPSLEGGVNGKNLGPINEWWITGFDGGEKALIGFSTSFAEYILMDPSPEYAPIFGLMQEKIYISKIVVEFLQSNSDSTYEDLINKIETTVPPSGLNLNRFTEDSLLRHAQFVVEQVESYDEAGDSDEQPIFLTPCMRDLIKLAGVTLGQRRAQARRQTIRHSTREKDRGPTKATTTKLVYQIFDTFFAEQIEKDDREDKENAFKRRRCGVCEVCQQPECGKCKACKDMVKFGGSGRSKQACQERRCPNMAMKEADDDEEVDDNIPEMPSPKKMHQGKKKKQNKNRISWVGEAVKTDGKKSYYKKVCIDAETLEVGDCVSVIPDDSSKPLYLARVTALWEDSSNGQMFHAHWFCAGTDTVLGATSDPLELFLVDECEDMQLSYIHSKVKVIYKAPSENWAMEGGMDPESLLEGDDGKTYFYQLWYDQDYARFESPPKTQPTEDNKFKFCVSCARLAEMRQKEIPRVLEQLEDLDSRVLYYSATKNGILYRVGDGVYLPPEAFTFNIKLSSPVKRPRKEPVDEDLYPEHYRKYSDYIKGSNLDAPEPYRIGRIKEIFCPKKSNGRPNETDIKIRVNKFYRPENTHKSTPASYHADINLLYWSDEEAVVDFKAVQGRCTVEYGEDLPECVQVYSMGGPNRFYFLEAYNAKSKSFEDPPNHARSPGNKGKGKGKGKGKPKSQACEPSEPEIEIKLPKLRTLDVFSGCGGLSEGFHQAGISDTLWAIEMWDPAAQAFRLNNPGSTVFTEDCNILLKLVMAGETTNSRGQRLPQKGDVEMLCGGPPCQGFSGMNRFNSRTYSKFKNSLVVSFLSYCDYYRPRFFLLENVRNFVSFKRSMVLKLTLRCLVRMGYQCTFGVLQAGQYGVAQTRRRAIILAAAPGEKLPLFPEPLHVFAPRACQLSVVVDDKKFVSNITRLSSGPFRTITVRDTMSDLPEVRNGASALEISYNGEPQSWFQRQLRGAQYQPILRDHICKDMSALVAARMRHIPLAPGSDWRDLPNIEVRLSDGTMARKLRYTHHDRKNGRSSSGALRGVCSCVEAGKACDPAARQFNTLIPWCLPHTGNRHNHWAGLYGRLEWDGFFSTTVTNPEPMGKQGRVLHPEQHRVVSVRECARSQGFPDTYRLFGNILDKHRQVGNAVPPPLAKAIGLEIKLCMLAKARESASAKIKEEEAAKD

[20] = target: 26S proteasome non-ATPase regulatory subunit 14 (Homo sapiens, UniProt O00487); assay: inhibition of proteasome subunit RPN11 – biochemical, fluorescence polarization, uHTS hits, confirmation (AID 602368); format: functional
Chain of 26S proteasome non-ATPase regulatory subunit 14 (O00487 whole entry): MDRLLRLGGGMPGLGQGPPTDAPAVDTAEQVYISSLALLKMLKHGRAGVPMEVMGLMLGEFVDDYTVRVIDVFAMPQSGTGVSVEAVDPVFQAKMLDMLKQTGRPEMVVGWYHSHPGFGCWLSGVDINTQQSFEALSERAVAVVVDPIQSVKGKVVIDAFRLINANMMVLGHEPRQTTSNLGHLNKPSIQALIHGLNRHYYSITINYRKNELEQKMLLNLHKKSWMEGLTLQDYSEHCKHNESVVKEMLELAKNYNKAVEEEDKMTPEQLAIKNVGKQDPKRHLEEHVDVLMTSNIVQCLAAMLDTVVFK

[21] = target: 72 kDa type IV collagenase (Homo sapiens, UniProt P08253); assay: Dose Response validation of uHTS RPN11 inhibitor hits using a MMP-2 Fluorescence assay.; format: functional
[22] = target: Prothrombin (Bos taurus, UniProt P00735); assay: thrombin protease inhibitors – biochemical, fluorescence polarization, uHTS hits, dose response (AID 602369); format: functional
[23] = target: T6, Small ubiquitin-related modifier 1 (Homo sapiens, UniProt P63165); assay: SUMO1 protein interaction blockers, potency – biochemical, fluorescence polarization, uHTS hits, dose response (AID 624382); format: functional; details: read-out: IC50_Mean
T6 sequence (P63165 whole entry): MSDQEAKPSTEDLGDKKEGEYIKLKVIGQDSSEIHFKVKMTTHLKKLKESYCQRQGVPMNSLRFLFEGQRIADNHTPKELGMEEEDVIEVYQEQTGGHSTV

[24] = target: T6, Small ubiquitin-related modifier 1; assay: SUMO1 protein-protein binding blockers, potency – biochemical, FRET, dose response (AID 624383); format: functional; details: read-out: IC50_Mean

- IC50 [1]: > 100 µM (inactive)
- IC50 [2]: > 100 µM (inactive)
- IC50 [3]: > 100 µM (inactive)
- IC50 [4]: > 100 µM (inactive)
- IC50 [5]: > 100 µM (inactive)
- IC50 [6]: > 100 µM (inactive)
SMILES: O=C(O)COc1ccc(NC(=O)COc2ccc(Cl)cc2)cc1

SMILES: CCC(C)NCCOCCOc1ccc(Cl)c(C)c1C (centres undefined)
- IC50 [7]: > 79.4 µM (inactive)
- EC50 [8]: 0.148 µM (active)
- EC50 [9]: 9.69 µM (active)
- IC50 [10]: > 79.4 µM (inactive)
- IC50 [11]: > 79.4 µM (inactive)

- EC50 [12]: 42.8 µM (active)
- EC50 [13]: 20.5 µM (active)
- EC50 [14]: 39.6 µM (active)
SMILES: COc1ccc(NC(=O)CCNS(=O)(=O)c2ccc3[nH]c(=O)oc3c2)cc1Cl

SMILES: COC(=O)c1c(NC(=O)COC(=O)c2ccc(NC(=O)CC#N)cc2)sc2c1CCCCC2
- IC50 [15]: > 49.8 µM (not active)
- IC50 [16]: 6.14 µM (active)
- IC50 [17]: 7.43 µM (active)
- IC50 [18]: 1.84 µM (active)
- IC50 [19]: 3.35 µM (active)
- IC50 [20]: 13.8 µM (active)
- IC50 [21]: > 100 µM (inactive)
- IC50 [22]: 85.9 µM (active)
- IC50 [23]: > 66.6 µM (inactive)
- IC50 [24]: 6.24 µM (active)
